Test results reported in PMC5408651 (Journal of visualized experiments : JoVE, 2017).

Key:
neutrophils (NIMP) = conditions: Tsk/+ mice, IRF5D 1 mg/kg/d subcutaneously, 21 d; Tsk/+ vs. Tsk/+ + IRF5D p<0.025; mean ± SD, n=3, 10 images per antibody; ref [21]; cited from earlier work
extracellular matrix = experiment: alterations in extracellular matrix of tight-skin mouse; type: in vivo, Tsk/+ mice; conditions: tight-skin mouse (Tsk/+); abstract statement, no data shown
[1] = system: monocytes/macrophages (CD64); conditions: Tsk/+ mice, IRF5D 1 mg/kg/d subcutaneously, 21 d; Tsk/+ vs. Tsk/+ + IRF5D p<0.025; mean ± SD, n=3, 10 images per antibody; ref [21]; cited from earlier work

## Ac-ELDWDADDIRLQIDNPD-NH2 [IRF5D]
Neutrophils (NIMP)
  number of neutrophils (NIMP) in the heart: decreased
Extracellular matrix
  alterations in extracellular matrix: reduced alterations in extracellular matrix
[1]
  number of monocytes/macrophages (CD64) in the heart: decreased
